According to patent US5030760A, “Tetrahydrophthalimides, and their production and use” (Sumitomo Chemical Company, Ltd., priority 1981, dated 1991):

What was measured:
corn [1] = assay: Test Example 1, foliar treatment, phytotoxicity to corn; type: in vivo; conditions: 3 weeks
How it was run: (§1)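 Plants were sown in upland soil and grown 2 weeks in a greenhouse, then sprayed on the foliage with the compound as an emulsifiable concentrate dispersed in water with a spreading agent (5 liters per are). After 3 further weeks, aerial fresh weight relative to untreated (taken as 100) was converted to a rating.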

wild oat = assay: Test Example 1, foliar treatment, herbicidal activity; type: in vivo, Avena fatua; conditions: 3 weeks
How it was run: as §1

velvetleaf [2] = assay: as above; type: in vivo, Abutilon theophrasti; conditions: 3 weeks
How it was run: as §1

corn [3] = assay: Test Example 2, field foliar treatment, phytotoxicity to corn; type: in vivo; conditions: 3 weeks
Procedure: (§2) The application of the tetrahydrophthalimides (I) as herbicides will be illustratively shown in the following Examples wherein the phytotoxicity to cultivated plants and the herbicidal activity on weeds were evaluated as follows: the aerial parts of the test plants were cut off and weighed (fresh weight); the percentage of the fresh weight of the treated plant to that of the untreated plant was calculated with the latter fresh weight taken as 100; and the crop damage and the herbicidal activity were evaluated by the standard given in the table below. The rating values of phytotoxicity, 0 and 1, and those of herbicidal effect, 5 and 4, are generally regarded as satisfactory to protect cultivated plants and control weeds, respectively. The rating values in the paddy field test alone were calculated from the dry weight of the test plants.
(§3) Seeds of corn and broad-leaved weeds such as cocklebur, common purslane and tall morningglory were sown in the field as previously laid up in ridges, each ridge having an upper width of 1 m. At the time when the corn grew up to the 6-leaf stage and the broad-leaved weeds up to 2 to 5-leaf stages, a designed amount of the test compound formulated into an emulsifiable concentrate according to Preparation Example 2 and dispersed in water was sprayed to the foliage of the test plants with three replications over the top by means of a small hand sprayer at a spray volume of 5 liters per are. After cultivation for 3 weeks, herbicidal activity and phytotoxicity were examined.

cocklebur = assay: Test Example 2, field foliar treatment, herbicidal activity; type: in vivo, Xanthium pennsylvanicum; conditions: 3 weeks
Procedure: as §2, §3

common purslane = assay: as above; type: in vivo, Portulaca oleracea; conditions: 3 weeks
Procedure: as §2, §3

corn [4] = assay: Test Example 3, soil surface spraying, phytotoxicity to corn; type: in vivo; conditions: 20 days
Procedure: as §2
(§4) Plastic trays (35 cm×25 cm×15 cm) were filled with upland field soil, and the seeds of tall morningglory, velvetleaf and sicklepod and the seeds of corn were sown therein. A designed amount of the test compounds formulated into a wettable powder according to Preparation Example 1 was dispersed in water and applied by spraying at a spray volume of 5 liters per are to the whole surface of the soil. After the spraying, the test plants were placed in a greenhouse and grown for 20 days, and herbicidal activity and phytotoxicity were examined.

tall morningglory [5] = assay: Test Example 3, soil surface spraying, herbicidal activity; type: in vivo, Ipomoea purpurea; conditions: 20 days
Procedure: as §2, §4

velvetleaf [6] = assay: as above; type: in vivo, Abutilon theophrasti; conditions: 20 days
Procedure: as §2, §4

velvetleaf [7] = assay: Test Example 4, pre-emergence treatment, herbicidal activity; type: in vivo, Abutilon theophrasti; conditions: 20 days
How it was run: (§5)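 Seeds sown in upland field soil; compound, formulated as an emulsifiable concentrate and dispersed in water with spreading agent, sprayed pre-emergence onto the soil surface at 5 liters per are. Plants grown 20 days in greenhouse; aerial fresh weight expressed as percent of untreated and converted to a rating score.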

Johnsongrass = assay: as above; type: in vivo, Sorghum halepense; conditions: 20 days
How it was run: as §5

tall morningglory [8] = assay: Test Example 5, spraying over the top, herbicidal activity; type: in vivo, Ipomoea purpurea; conditions: sprayed over the top, 20 days
Procedure: as §2
(§6) Plastic trays (35 cm×25 cm×15 cm) were filled with upland field soil, and the seeds of tall morningglory, velvetleaf, jimsonweed, sicklepod, hemp sesbania, prickly side, Johnsongrass, green foxtail and large crabgrass and the seeds of soybean were sown therein. A designed amount of the test compound formulated into a wettable powder according to Preparation Example 1 and dispersed in water was sprayed over the top by means of a small hand sprayer at a spray volume of 5 liters per are. After the spraying, the test plants were grown in greenhouse for 20 days, and phytotoxicity and herbicidal activity were examined.

velvetleaf [9] = assay: as above; type: in vivo, Abutilon theophrasti; conditions: sprayed over the top, 20 days
Procedure: as §2, §6

jimsonweed = assay: as above; type: in vivo, Datura stramonium; conditions: sprayed over the top, 20 days
Procedure: as §2, §6

prickly sida = assay: as above; type: in vivo, Sida spinosa; conditions: sprayed over the top, 20 days
Procedure: as §2, §6

green foxtail = assay: as above; type: in vivo, Setaria viridis; conditions: sprayed over the top, 20 days
Procedure: as §2, §6

large crabgrass = assay: as above; type: in vivo, Digitaria sanguinalis; conditions: sprayed over the top, 20 days
Procedure: as §2, §6

barnyardgrass = assay: Test Example 6, paddy pot perfusion, herbicidal activity; type: in vivo, Echinochloa crus-galli; conditions: 3 weeks, dry weight
Procedure: as §2
(§7) Wagner's pots (1/5000 are) were filled with paddy field soil containing the seeds of broad-leaved weeds (e.g. monochoria, false pimpernel, toothcup) and the seeds of barnyardgrass and hardstem bulrush, and water was poured therein until the depth of water became 4 cm. Rice seedlings of the 3.5-leaf stage and the tubers of arrowhead were transplanted therein and grown for 2 days in a greenhouse. A designed amount of the test compound formulated in an emulsifiable concentrate according to Preparation Example 2 was applied to the pots by perfusion. Thereafter, the test plants were grown for an additional 3 weeks in the greenhouse, and herbicidal activity and phytotoxicity were examined. In this treatment, the emulsifiable concentrate was dispersed in water for application at a perfusion volume of 10 liters per are.

broad-leaved weed = assay: as above; type: in vivo, monochoria, false pimpernel, toothcup; conditions: 3 weeks, dry weight
Procedure: as §2, §7
Also: ranges in brackets are in %.

O=C1C2=C(CCCC2)C(=O)N1c1ccc(Cl)cc1F [A, 2-fluoro-4-chlorophenyltetrahydrophthalimide, reference compound]
4 (1-10): Herbicidal activity, Cocklebur (cocklebur; 1.25 g/are) | Herbicidal activity, Velvetleaf (velvetleaf [6]; 10 g/are) | Herbicidal activity, Velvetleaf (velvetleaf [7]; 2.5 g/are) | Herbicidal activity, Jimsonweed (jimsonweed; 10 g/are)
1 (90-99): Phytotoxicity, Corn (corn [1]; 1.25 g/are) | Phytotoxicity, Corn (corn [3]; 1.25 g/are)
3 (60-79): Phytotoxicity, Corn (corn [4]; 10 g/are)
0 (100): Phytotoxicity, Corn (corn [3]; 0.63 g/are)
3 (11-20): Herbicidal activity, Common purslane (common purslane; 1.25 g/are) | Herbicidal activity, Velvetleaf (velvetleaf [6]; 5 g/are) | Herbicidal activity, Johnsongrass (Johnsongrass; 10 g/are)
5 (0): Herbicidal activity, Velvetleaf (velvetleaf [2]; 1.25 g/are) | Herbicidal activity, Velvetleaf (velvetleaf [2]; 5 g/are) | Herbicidal activity, Velvetleaf (velvetleaf [7]; 10 g/are) | Herbicidal activity, Velvetleaf (velvetleaf [9]; 10 g/are) | Herbicidal activity, Velvetleaf (velvetleaf [9]; 20 g/are) | Herbicidal activity, Jimsonweed (jimsonweed; 20 g/are) | Herbicidal activity, Prickly sida (prickly sida; 10 g/are) | Herbicidal activity, Prickly sida (prickly sida; 20 g/are) | Herbicidal activity, Green foxtail (green foxtail; 10 g/are) | Herbicidal activity, Green foxtail (green foxtail; 20 g/are) | Herbicidal activity, Large crabgrass (large crabgrass; 10 g/are) | Herbicidal activity, Large crabgrass (large crabgrass; 20 g/are) | Herbicidal activity, Broad-leaved weed (broad-leaved weed; 1.25 g/are) | Herbicidal activity, Broad-leaved weed (broad-leaved weed; 2.5 g/are)
0 (61-100): Herbicidal activity, Wild cat (wild oat; 1.25 g/are) | Herbicidal activity, Tall morningglory (tall morningglory [5]; 5 g/are) | Herbicidal activity, Tall morningglory (tall morningglory [5]; 10 g/are) | Herbicidal activity, Tall morningglory (tall morningglory [8]; 10 g/are)
1 (41-60): Herbicidal activity, Wild cat (wild oat; 5 g/are) | Herbicidal activity, Cocklebur (cocklebur; 0.63 g/are) | Herbicidal activity, Johnsongrass (Johnsongrass; 2.5 g/are) | Herbicidal activity, Tall morningglory (tall morningglory [8]; 20 g/are) | Herbicidal activity, Barnyardgrass (barnyardgrass; 1.25 g/are)
2 (21-40): Herbicidal activity, Common purslane (common purslane; 0.63 g/are) | Herbicidal activity, Barnyardgrass (barnyardgrass; 2.5 g/are)
2 (80-89): Phytotoxicity, Corn (corn [1]; 5 g/are) | Phytotoxicity, Corn (corn [4]; 5 g/are)

CC(C)Oc1cc(N2C(=O)C3=C(CCCC3)C2=O)c(Cl)cc1Cl [B, 2,4-dichloro-5-isopropoxyphenyltetrahydrophthalimide, reference compound]
4 (1-10): Herbicidal activity, Cocklebur (cocklebur; 1.25 g/are) | Herbicidal activity, Common purslane (common purslane; 1.25 g/are) | Herbicidal activity, Velvetleaf (velvetleaf [9]; 10 g/are) | Herbicidal activity, Jimsonweed (jimsonweed; 10 g/are) | Herbicidal activity, Jimsonweed (jimsonweed; 20 g/are) | Herbicidal activity, Prickly sida (prickly sida; 20 g/are) | Herbicidal activity, Green foxtail (green foxtail; 20 g/are) | Herbicidal activity, Large crabgrass (large crabgrass; 20 g/are)
2 (21-40): Herbicidal activity, Cocklebur (cocklebur; 0.63 g/are) | Herbicidal activity, Johnsongrass (Johnsongrass; 20 g/are)
3 (11-20): Herbicidal activity, Common purslane (common purslane; 0.63 g/are) | Herbicidal activity, Velvetleaf (velvetleaf [6]; 10 g/are) | Herbicidal activity, Velvetleaf (velvetleaf [7]; 20 g/are) | Herbicidal activity, Prickly sida (prickly sida; 10 g/are) | Herbicidal activity, Green foxtail (green foxtail; 10 g/are) | Herbicidal activity, Large crabgrass (large crabgrass; 10 g/are) | Herbicidal activity, Barnyardgrass (barnyardgrass; 2.5 g/are)
0 (100): Phytotoxicity, Corn (corn [1]; 1.25 g/are) | Phytotoxicity, Corn (corn [4]; 5 g/are) | Phytotoxicity, Corn (corn [4]; 10 g/are)
5 (0): Herbicidal activity, Velvetleaf (velvetleaf [2]; 1.25 g/are) | Herbicidal activity, Velvetleaf (velvetleaf [2]; 5 g/are) | Herbicidal activity, Velvetleaf (velvetleaf [9]; 20 g/are) | Herbicidal activity, Broad-leaved weed (broad-leaved weed; 1.25 g/are) | Herbicidal activity, Broad-leaved weed (broad-leaved weed; 2.5 g/are)
1 (90-99): Phytotoxicity, Corn (corn [1]; 5 g/are) | Phytotoxicity, Corn (corn [3]; 0.63 g/are) | Phytotoxicity, Corn (corn [3]; 1.25 g/are)
0 (61-100): Herbicidal activity, Wild cat (wild oat; 1.25 g/are) | Herbicidal activity, Tall morningglory (tall morningglory [5]; 5 g/are) | Herbicidal activity, Tall morningglory (tall morningglory [5]; 10 g/are) | Herbicidal activity, Tall morningglory (tall morningglory [8]; 10 g/are) | Herbicidal activity, Tall morningglory (tall morningglory [8]; 20 g/are)
1 (41-60): Herbicidal activity, Wild cat (wild oat; 5 g/are) | Herbicidal activity, Velvetleaf (velvetleaf [6]; 5 g/are) | Herbicidal activity, Velvetleaf (velvetleaf [7]; 5 g/are) | Herbicidal activity, Johnsongrass (Johnsongrass; 5 g/are) | Herbicidal activity, Barnyardgrass (barnyardgrass; 1.25 g/are)
